Results published in US20180370927A1, “MICROBIOCIDAL OXADIAZOLE DERIVATIVES” (SYNGENTA PARTICIPATIONS AG, priority 2015, published 2018).

Key:
Phakopsora pachyrhizi = Phakopsora pachyrhizi / soybean / leaf disc preventative (Asian soybean rust); assay type: in vivo; settings: foliar, 200 ppm in the applied formulation, soybean leaf disks, assessed 12 to 14 days after application, read-out: disease control compared to untreated control leaf disks
Description: (§1) Leaf disks or leaf segments of various plant species are cut from plants grown in a greenhouse. The cut leaf disks or segments are placed in multiwell plates (24-well format) onto water agar. The leaf disks are sprayed with a test solution before (preventative) or after (curative) inoculation. Compounds to be tested are prepared as DMSO solutions (max. 10 mg/mL) which are diluted to the appropriate concentration with 0.025% Tween20 just before spraying. The inoculated leaf disks or segments are incubated under defined conditions (temperature, relative humidity, light, etc.) according to the respective test system. A single evaluation of disease level is carried out 3 to 14 days after inoculation, depending on the pathosystem. Percent disease control relative to the untreated check leaf disks or segments is then calculated.
Example 3: Fungicidal Activity Against Phakopsora pachyrhizi/Soybean/Leaf Disc Preventative (Asian Soybean Rust)
Soybean leaf disks are placed on water agar in multiwell plates (24-well format) and sprayed with the formulated test compound diluted in water. One day after application leaf discs are inoculated by spraying a spore suspension on the lower leaf surface. After an incubation period in a climate cabinet of 24-36 hours in darkness at 20° C. and 75% relative humidity leaf disc are kept at 20° C. with 12 hours light/day and 75% relative humidity. The activity of a compound is assessed as percent disease control compared to untreated when an appropriate level of disease damage appears in untreated check leaf disks (12 to 14 days after application).
(§2) The following compounds at 200 ppm in the applied formulation give at least 80% disease control in this test when compared to untreated control leaf disks under the same conditions, which show extensive disease development.

[1] = tested on: Glomerella lacenarium (Colletotrichum lacenarium); experiment: Glomerella lacenarium (Colletotrichum lacenarium) liquid culture / cucumber / preventative (anthracnose); assay type: cell-based; settings: 20 ppm in the applied formulation, liquid culture in PDB, 24° C., 3 to 4 days after application, read-out: disease control (inhibition of growth, photometric) compared to untreated control
How it was run: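 Cryostored conidia in potato dextrose broth added to DMSO compound solution in microtiter plates, incubated at 24° C. Growth inhibition read photometrically 3 to 4 days after application, as percent control versus untreated check; compounds tested at 20 ppm.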

[2] = tested on: Puccinia recondita f. Sp. Tritici; experiment: Puccinia recondita f. sp. tritici / wheat / leaf disc preventative (brown rust); assay type: in vivo; settings: foliar, 200 ppm in the applied formulation, wheat leaf segments, preventative, assessed 7 to 9 days after application, read-out: disease control compared to untreated control leaf disks
How it was run: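 Wheat cv. Kanzler leaf segments on agar sprayed with formulated compound in water, inoculated with rust spores 1 day later. Incubated at 19° C, 75% rh, 12 h light/12 h dark; percent disease control versus untreated scored 7 to 9 days after application; tested at 200 ppm.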

[3] = tested on: Puccinia recondita f. Sp. Tritici; experiment: Puccinia recondita f. sp. tritici / wheat / leaf disc curative (brown rust); assay type: in vivo; settings: foliar, 200 ppm in the applied formulation, wheat leaf segments, curative (applied 1 day after inoculation), assessed 6 to 8 days after application, read-out: disease control compared to untreated control leaf disks
Description: as §1
Example 2: Fungicidal Activity Against Puccinia recondita f. Sp. Tritici/Wheat/Leaf Disc Curative (Brown Rust)
Wheat leaf segments cv. Kanzler are placed on agar in multiwell plates (24-well format). The leaf segments are then inoculated with a spore suspension of the fungus. Plates were stored in darkness at 19° C. and 75% relative humidity. The formulated test compound diluted in water was applied 1 day after inoculation. The leaf segments were incubated at 19° C. and 75% relative humidity under a light regime of 12 hours light/12 hours darkness in a climate cabinet and the activity of a compound was assessed as percent disease control compared to untreated when an appropriate level of disease damage appears in untreated check leaf segments (6 to 8 days after application).
as §2

SMILES | pest or weed control at 200 ppm (Phakopsora pachyrhizi) [%] | inhibition at 20 ppm [1] [%] | pest or weed control at 200 ppm [2] [%] | pest or weed control at 200 ppm [3] [%]
CCCC(=O)C(=O)N(Cc1ccc(-c2noc(C(F)(F)F)n2)cc1)CC1CC1 [Compound 1.6, N-(cyclopropyl-methyl)-2-oxo-N-[[4-[5-(trifluoromethyl)-1,2,4-oxadiazol-3-yl]phenyl]methyl]pentanamide] | ≥ 80 | ≥ 80 |  | 
CC(C)CC(=O)C(=O)NCc1ccc(-c2noc(C(F)(F)F)n2)cc1Cl [Compound 1.61, N-[[2-chloro-4-[5-(trifluoromethyl)-1,2,4-oxadiazol-3-yl]phenyl]methyl]-4-methyl-2-oxo-pentanamide] | ≥ 80 |  | ≥ 80 | 
Cc1cc(-c2noc(C(F)(F)F)n2)ccc1CNC(=O)C(=O)C(C)(C)C [Compound 1.67, 3,3-dimethyl-N-[[2-methyl-4-[5-(trifluoromethyl)-1,2,4-oxadiazol-3-yl]phenyl]methyl]-2-oxo-butanamide] | ≥ 80 | ≥ 80 |  | 
CCCCON(Cc1ccc(-c2noc(C(F)(F)F)n2)cc1)C(=O)C(=O)CC [Compound 1.30, N-butoxy-2-oxo-N-[[4-[5-(trifluoromethyl)-1,2,4-oxadiazol-3-yl]phenyl]methyl]butanamide] | ≥ 80 | ≥ 80 |  | 
NC(=O)C(=O)NCc1ccc(-c2noc(C(F)(F)F)n2)c(F)c1F [Compound 4.84, N′-[[2,3-difluoro-4-[5-(trifluoromethyl)-1,2,4-oxadiazol-3-yl]phenyl]methyl] oxamide] | ≥ 80 | ≥ 80 |  | 
Cc1cc(-c2noc(C(F)(F)F)n2)ccc1CNC(=O)C(=O)c1ccccc1 [Compound 1.65, N-[[2-methyl-4-[5-(trifluoromethyl)-1,2,4-oxadiazol-3-yl]phenyl]methyl]-2-oxo-2-phenyl-acetamide] | ≥ 80 |  | ≥ 80 | 
NC(=O)C(=O)NCCc1ccc(-c2noc(C(F)(F)F)n2)cc1 [Compound 4.85, N′-[2-[4-[5-(trifluoromethyl)-1,2,4-oxadiazol-3-yl]phenyl]ethyl] oxamide] | ≥ 80 | ≥ 80 |  | 
O=C(NCc1ccc(-c2noc(C(F)(F)F)n2)c(F)c1F)C(=O)c1ccco1 [Compound 1.81, N-[[2,3-difluoro-4-[5-(trifluoromethyl)-1,2,4-oxadiazol-3-yl]phenyl]methyl]-2-(2-furyl)-2-oxo-acetamide] | ≥ 80 | ≥ 80 |  | 
CC(=O)C(=O)NCc1ccc(-c2noc(C(F)(F)F)n2)cc1F [Compound 1.26, N-[[2-fluoro-4-[5-(trifluoromethyl)-1,2,4-oxadiazol-3-yl]phenyl]methyl]-2-oxo-propanamide] |  | ≥ 80 | ≥ 80 | ≥ 80
CONC(=O)C(=O)N(Cc1ccc(-c2noc(C(F)(F)F)n2)cc1)OC [Compound 4.78, N,N′-dimethoxy-N′-[[4-[5-(trifluoromethyl)-1,2,4-oxadiazol-3-yl]phenyl]methyl] oxamide] |  | ≥ 80 | ≥ 80 | ≥ 80
CON(Cc1ccc(-c2noc(C(F)(F)F)n2)cc1)C(=O)C(=O)NC(C)C [Compound 4.64, N-isopropyl-N′-methoxy-N′-[[4-[5-(trifluoromethyl)-1,2,4-oxadiazol-3-yl]phenyl]methyl] oxamide] |  | ≥ 80 | ≥ 80 | ≥ 80
CCC(=O)C(=O)N(C)c1ccc(-c2noc(C(F)(F)F)n2)cc1 [Compound 1.34, N-methyl-2-oxo-[4-[5-(trifluoromethyl)-1,2,4-oxadiazol-3-yl]phenyl]butanamide] | ≥ 80 |  |  | 
CC(=O)C(=O)N(Cc1ccc(-c2noc(C(F)(F)F)n2)cc1)CC1CCCO1 (centres unmarked) [Compound 1.14, 2-oxo-N-(tetrahydrofuran-2-ylmethyl)-N-[[4-[5-(trifluoromethyl)-1,2,4-oxadiazol-3-yl]phenyl]methyl]propanamide] |  | ≥ 80 | ≥ 80 | ≥ 80
